The target of series [1] is Plasminogen (Homo sapiens, UniProt P00747). As to the kind of experiment: Inhibition of human plasmin.
The nature of series [2]: Half life in rat at 2 mg/kg, po. Format: ADME, organism-based. Conditions: in vivo.
Series [3] addresses Tissue-type plasminogen activator (Homo sapiens, UniProt P00750). As to the kind of experiment: Inhibition of human tPA.
Series [4] can be described thus: Cmax in rat at 2 mg/kg, po. Set-up: dose 2 mg/kg, route oral. The format is ADME, organism-based. Conditions: in vivo.
Series [5] relates to Rattus norvegicus. In words: Total AUC in rat at 2 mg/kg, po. The format is ADME, organism-based. More on the design: dose 2 mg/kg, route oral, time AUCmax. Conditions: in vivo.
A short description of series [6]: Clearance in rat at 2 mg/kg, po. The format is ADME, organism-based. The note with it: in vivo.
Series [7] can be described thus: Oral bioavailability in rat at 2 mg/kg. Format: ADME, organism-based. Conditions: in vivo.
The subject of series [8] is Rattus norvegicus. As to the kind of experiment: Volume of distribution in rat at 2 mg/kg, po. Format: ADME, organism-based. The note with it: in vivo.
Series [9] concerns the target Urokinase-type plasminogen activator (Homo sapiens, UniProt P00749). In words: Inhibition of human uPA.
Series [10] relates to Mus musculus. As to the kind of experiment: Prevention of multiple sclerosis development in chronic SJL mouse EAE model at 10 to 25 mg/kg, po bid. Format: functional, organism-based.
Series [11] relates to Mus musculus. As to the kind of experiment: Prevention of multiple sclerosis development in chronic SJL mouse EAE model at 50 mg/kg, po bid. Format: functional, organism-based.
In series [12] the test system is Mus musculus. As to the kind of experiment: Prevention of multiple sclerosis development in acute SJL mouse EAE model at 25 to 50 mg/kg, po bid. Format: functional, organism-based.
In series [13] the target is Plasminogen (Mus musculus, UniProt P20918). As to the kind of experiment: Inhibition of mouse plasmin.
The target of series [14] is Urokinase-type plasminogen activator (Mus musculus, UniProt P06869). In words: Inhibition of mouse uPA.
The target of series [15] is Tissue-type plasminogen activator (Mus musculus, UniProt P11214). In words: Inhibition of mouse tPA.

pIC50: −log10 of the molar value. The source made the active and inactive calls. The calls are words filed in the database; no cut-off is given here.

Tissue-type plasminogen activator (Homo sapiens, UniProt P00750), sequence (P00750 whole entry): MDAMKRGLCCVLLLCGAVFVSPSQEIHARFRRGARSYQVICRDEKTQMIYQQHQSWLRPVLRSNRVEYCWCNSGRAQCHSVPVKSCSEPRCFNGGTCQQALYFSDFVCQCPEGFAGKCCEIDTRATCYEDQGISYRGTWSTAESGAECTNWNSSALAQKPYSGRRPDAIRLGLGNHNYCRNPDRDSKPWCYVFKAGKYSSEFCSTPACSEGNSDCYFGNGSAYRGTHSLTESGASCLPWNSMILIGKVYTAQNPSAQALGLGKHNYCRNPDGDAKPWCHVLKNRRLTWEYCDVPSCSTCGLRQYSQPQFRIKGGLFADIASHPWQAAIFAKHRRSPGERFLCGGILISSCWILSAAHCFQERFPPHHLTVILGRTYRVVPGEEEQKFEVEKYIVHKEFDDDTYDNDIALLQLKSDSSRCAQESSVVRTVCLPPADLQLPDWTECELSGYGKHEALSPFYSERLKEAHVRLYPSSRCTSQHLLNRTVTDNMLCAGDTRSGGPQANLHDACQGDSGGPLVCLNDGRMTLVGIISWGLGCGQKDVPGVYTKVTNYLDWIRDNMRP
Plasminogen (Homo sapiens, UniProt P00747), sequence (P00747 97-580 limits assumed): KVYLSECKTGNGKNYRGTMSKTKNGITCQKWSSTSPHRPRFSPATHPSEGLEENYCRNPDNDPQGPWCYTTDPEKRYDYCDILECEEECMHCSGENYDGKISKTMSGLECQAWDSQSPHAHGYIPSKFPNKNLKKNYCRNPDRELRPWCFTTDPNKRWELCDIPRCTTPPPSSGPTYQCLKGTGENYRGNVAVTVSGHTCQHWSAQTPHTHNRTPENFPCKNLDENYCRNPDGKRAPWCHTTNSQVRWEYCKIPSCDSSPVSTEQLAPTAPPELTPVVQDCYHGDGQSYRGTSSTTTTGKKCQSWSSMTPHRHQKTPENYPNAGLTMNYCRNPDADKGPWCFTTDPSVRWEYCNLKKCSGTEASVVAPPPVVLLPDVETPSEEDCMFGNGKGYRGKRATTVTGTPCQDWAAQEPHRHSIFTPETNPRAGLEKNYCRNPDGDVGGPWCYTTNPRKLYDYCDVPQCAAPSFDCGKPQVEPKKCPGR
Plasminogen (Homo sapiens, UniProt P00747), sequence (P00747 581-810 limits assumed): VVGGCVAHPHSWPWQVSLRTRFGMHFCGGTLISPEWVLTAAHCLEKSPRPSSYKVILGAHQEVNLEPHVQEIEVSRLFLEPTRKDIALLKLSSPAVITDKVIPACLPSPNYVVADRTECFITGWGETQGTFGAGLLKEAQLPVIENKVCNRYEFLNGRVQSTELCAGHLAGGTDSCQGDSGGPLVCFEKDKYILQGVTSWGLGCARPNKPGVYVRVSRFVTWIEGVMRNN
Urokinase-type plasminogen activator (Mus musculus, UniProt P06869), sequence (P06869 21-178 limits assumed): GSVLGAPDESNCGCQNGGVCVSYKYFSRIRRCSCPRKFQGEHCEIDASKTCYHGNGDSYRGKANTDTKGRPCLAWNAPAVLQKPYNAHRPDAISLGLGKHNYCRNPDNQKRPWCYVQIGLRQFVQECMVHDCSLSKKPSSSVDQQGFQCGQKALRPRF
Urokinase-type plasminogen activator (Mus musculus, UniProt P06869), sequence (P06869 180-433 limits assumed): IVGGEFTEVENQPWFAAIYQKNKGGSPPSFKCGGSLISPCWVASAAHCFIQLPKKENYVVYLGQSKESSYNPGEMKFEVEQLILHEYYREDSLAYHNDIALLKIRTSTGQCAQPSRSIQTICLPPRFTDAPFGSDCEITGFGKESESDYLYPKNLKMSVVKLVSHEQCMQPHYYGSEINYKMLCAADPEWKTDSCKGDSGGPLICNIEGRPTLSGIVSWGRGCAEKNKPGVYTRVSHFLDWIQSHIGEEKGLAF
Plasminogen (Mus musculus, UniProt P20918), sequence (P20918 98-581 limits assumed): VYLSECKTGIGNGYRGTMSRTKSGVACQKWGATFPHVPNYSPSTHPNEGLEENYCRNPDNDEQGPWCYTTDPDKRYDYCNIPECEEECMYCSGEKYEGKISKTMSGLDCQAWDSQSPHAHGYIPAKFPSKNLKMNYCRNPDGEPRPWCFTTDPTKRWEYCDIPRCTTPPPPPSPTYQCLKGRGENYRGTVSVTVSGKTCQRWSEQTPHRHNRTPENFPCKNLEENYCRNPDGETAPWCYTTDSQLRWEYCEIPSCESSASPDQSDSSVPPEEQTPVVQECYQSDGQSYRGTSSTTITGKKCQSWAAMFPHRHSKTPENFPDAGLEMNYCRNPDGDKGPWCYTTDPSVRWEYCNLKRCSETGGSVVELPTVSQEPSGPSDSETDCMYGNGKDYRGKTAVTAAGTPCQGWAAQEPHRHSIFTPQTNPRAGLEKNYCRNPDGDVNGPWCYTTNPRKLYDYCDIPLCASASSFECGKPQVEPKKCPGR
Plasminogen (Mus musculus, UniProt P20918), sequence (P20918 582-812 limits assumed): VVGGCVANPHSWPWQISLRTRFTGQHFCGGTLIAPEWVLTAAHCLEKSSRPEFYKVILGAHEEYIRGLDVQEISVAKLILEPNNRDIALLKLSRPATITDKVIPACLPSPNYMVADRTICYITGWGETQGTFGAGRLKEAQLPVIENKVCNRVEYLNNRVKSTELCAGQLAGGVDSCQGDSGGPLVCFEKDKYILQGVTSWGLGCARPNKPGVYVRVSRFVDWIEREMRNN
Tissue-type plasminogen activator (Mus musculus, UniProt P11214), sequence (P11214 whole entry): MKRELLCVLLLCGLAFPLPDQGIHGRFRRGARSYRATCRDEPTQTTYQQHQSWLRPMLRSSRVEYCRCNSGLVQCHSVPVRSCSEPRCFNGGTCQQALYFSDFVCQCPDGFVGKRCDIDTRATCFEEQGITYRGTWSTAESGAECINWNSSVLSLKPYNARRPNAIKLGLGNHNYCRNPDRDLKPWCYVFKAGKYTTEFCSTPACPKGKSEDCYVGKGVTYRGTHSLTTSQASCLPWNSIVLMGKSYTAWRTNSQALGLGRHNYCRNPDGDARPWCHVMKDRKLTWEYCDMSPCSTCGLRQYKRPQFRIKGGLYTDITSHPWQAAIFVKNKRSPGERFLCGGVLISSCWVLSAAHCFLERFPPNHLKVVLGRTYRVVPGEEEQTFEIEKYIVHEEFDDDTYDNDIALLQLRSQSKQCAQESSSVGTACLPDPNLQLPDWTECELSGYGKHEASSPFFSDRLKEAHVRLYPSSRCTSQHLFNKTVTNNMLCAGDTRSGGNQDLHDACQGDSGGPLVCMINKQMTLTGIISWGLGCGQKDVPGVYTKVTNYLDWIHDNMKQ

On to `CC[C@@H](Oc1nc(Oc2cccc(-c3cccc(CN)c3)c2)c(F)cc1F)C(=O)O`, for which the figures for the pIC50 (against Plasminogen [1]; in series [3]; in series [9]) were 5.73, 5.80 and 6.63, respectively. For the same compound, the half-life (as a rule, how long it takes for the measured level to halve) in series [2] is 2.8 h. Besides, the Cmax (as a rule, the maximum level reached in the sampled fluid or tissue) in [4] turned out to be 640 ng/mL. The AUC (in general, the area under the concentration-time curve, a measure of exposure) with Rattus norvegicus [5] worked out at 2200 ng·h/mL. For the same compound, the CL/F (in general, the apparent clearance, not corrected for the fraction that reaches the circulation) in series [6] came to 8.4 mL/min/kg. Moreover, in series [7], the bioavailability – broadly, dose-corrected exposure relative to a reference, in per cent – was determined as 55%. In addition, the Vd in the series with Rattus norvegicus [8] was found to be 0.76 L/kg.
On to `COc1cc(Oc2nc(O[C@@H](C(=O)O)C(C)(C)C)c(F)cc2F)cc(-c2cccc(CN)c2)c1`, for which the figures for the negative logarithm of the IC50 (pIC50) (on Plasminogen [1]; in series [3]; in series [9]) were 5.48, 5.73 and 7.64, respectively.
For `CC(C)(C)[C@@H](Oc1nc(Oc2cccc(-c3cccc(CN)c3)c2)c(F)cc1F)C(=O)O`, the pIC50 (usually the negative decadic logarithm of the IC50, by convention in mol/L) at Plasminogen [1] was 5.26; in series [3] it was 5.84; in series [9], 7.08.
On to `CC[C@H](Oc1nc(Oc2cccc(-c3cccc(CN)c3)c2)c(F)cc1F)C(=O)O`, for which the pIC50 against Plasminogen [1] was below 4.52; in series [3], below 4.52; in series [9], 5.14.
Turning to `Cc1cc(Oc2nc(O[C@@H](C(=O)O)C(C)(C)C)c(F)cc2F)cc(-c2cccc(CN)c2)c1`, the results for the pIC50 (on Plasminogen [1]; in [3]; in series [9]) were 5.72, 6.33 and 7.29, respectively.
In the case of `CC[C@@H](Oc1nc(Oc2cc(C)cc(-c3cccc(CN)c3)c2)c(F)cc1F)C(=O)O`, the pIC50 against Plasminogen [1] was 5.88; in series [3], 5.80; at Plasminogen [13] it was 5.80; in [14], 6.39; in series [9], 7.10; in series [15] it was 6.04. Moreover, the result in the series on Mus musculus [10] was inactive. For the same compound, in series [2], the half-life is 2.2 h. For the same compound, the result in the series with Mus musculus [11] and with Mus musculus [12] was Active. The compound also yielded an exposure (AUC) in the series on Rattus norvegicus [5] of 13200 ng·h/mL. The same compound displayed a CL/F in series [6] of 4 mL/min/kg. Moreover, the bioavailability in series [7] was determined as 30%. For the same compound, in the series on Rattus norvegicus [8], the Vd was 0.6 L/kg.
Turning to `CC(C)(C)[C@@H](Oc1nc(Oc2cc(C#N)cc(-c3cccc(CN)c3)c2)c(F)cc1F)C(=O)O`, the figures for the pIC50 (against Plasminogen [1]; in [3]; in [9]) were 5.27, 5.24 and 7.47, respectively.
Turning to `C[C@@H](Oc1nc(Oc2cccc(-c3cccc(CN)c3)c2)c(F)cc1F)C(=O)O`, the pIC50 is 5.29 at Plasminogen [1] and 6.44 in [9].
Regarding `NCc1cccc(-c2cccc(Oc3nc(OCC(=O)O)c(F)cc3F)c2)c1`, the pIC50 in [9] was 5.48.

Source of the values: ChEMBL document CHEMBL4265914, “Discovery of selective urokinase plasminogen activator (uPA) inhibitors as a potential treatment for multiple sclerosis” (Bioorg Med Chem Lett, 2018).
